{
  "source": "PubChem BioAssay AID2060354",
  "about": "(Molecular Pharmacology Branch, DTP, NCI, 2025)",
  "system": "519858-162-T-J1-PDC spheroid growth inhibition",
  "assay": "Anticancer human tumor 519858-162-T-J1-PDC patient-derived colon adenocarcinoma cell line growth inhibition [TAK]",
  "details": "spheroids with HUVEC and MSC; for pIC50: curve of first compound; for viability, T/C: stronger effect = lower value",
  "how_it_was_run": "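Tumor cells were grown as spheroids with HUVEC and hMSC (60:25:15) and treated with targeted agents combined with TAK-243 or ipatasertib. Drugs were tested in half-log steps down from near the clinical Cmax, or from 10 microM where Cmax was unknown.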",
  "key": {"[1]": {"details": "second compound 0.3 µM, first compound 0.0316 µM"}, "[2]": {"details": "second compound 0.3 µM, first compound 0.1 µM"}, "[3]": {"details": "second compound 0.3 µM, first compound 0.316 µM"}, "[4]": {"details": "second compound 0.3 µM, first compound 1 µM"}, "[5]": {"details": "second compound 0.949 µM, first compound 0.0316 µM"}, "[6]": {"details": "second compound 0.949 µM, first compound 0.1 µM"}, "[7]": {"details": "second compound 0.949 µM, first compound 0.316 µM"}, "[8]": {"details": "second compound 0.949 µM, first compound 1 µM"}, "[9]": {"details": "second compound 3 µM, first compound 0.0316 µM"}, "[10]": {"details": "second compound 3 µM, first compound 0.1 µM"}, "[11]": {"details": "second compound 3 µM, first compound 0.316 µM"}, "[12]": {"details": "second compound 3 µM, first compound 1 µM"}, "[13]": {"details": "second compound 9.49 µM, first compound 0.0316 µM"}, "[14]": {"details": "second compound 9.49 µM, first compound 0.1 µM"}, "[15]": {"details": "second compound 9.49 µM, first compound 0.316 µM"}, "[16]": {"details": "second compound 9.49 µM, first compound 1 µM"}, "[17]": {"details": "second compound 30 µM, first compound 0.0316 µM"}, "[18]": {"details": "second compound 30 µM, first compound 0.1 µM"}, "[19]": {"details": "second compound 30 µM, first compound 0.316 µM"}, "[20]": {"details": "second compound 30 µM, first compound 1 µM"}},
  "note": "pIC50: −log10 of the molar value.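 Further: spheroids exposed to drugs for 7 days.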",
  "data": [
    {"smiles": "COc1c(OCCCN2CCOCC2)ccc2c3n(c(=NC(=O)c4cnc(N)nc4)nc12)CCN3", "note": "+ CC(C)NCC(C(=O)N1CCN(c2ncnc3c2C(C)CC3O)CC1)c1ccc(Cl)cc1", "values": [
      {"measurement": "pIC50", "setting": "second compound 0.3 µM", "value": 6.57},
      {"measurement": "pIC50", "setting": "second compound 0.949 µM", "value": 6.41},
      {"measurement": "pIC50", "setting": "second compound 3 µM", "value": "< 6.00"},
      {"measurement": "pIC50", "setting": "second compound 9.49 µM", "value": "< 6.00"},
      {"measurement": "pIC50", "setting": "second compound 30 µM", "value": 6.56},
      {"measurement": "viability, T/C", "setting": "second compound 0.3 µM, first compound 0.00316 µM", "value": 87.3, "unit": "%"},
      {"measurement": "viability, T/C", "setting": "second compound 0.3 µM, first compound 0.01 µM", "value": 78.4, "unit": "%"},
      {"measurement": "viability, T/C", "setting": "[1]", "value": 65, "unit": "%"},
      {"measurement": "viability, T/C", "setting": "[2]", "value": 57.2, "unit": "%"},
      {"measurement": "viability, T/C", "setting": "[3]", "value": 49.5, "unit": "%"},
      {"measurement": "viability, T/C", "setting": "[4]", "value": 42.5, "unit": "%"},
      {"measurement": "viability, T/C", "setting": "second compound 0.949 µM, first compound 0.00316 µM", "value": 76.6, "unit": "%"},
      {"measurement": "viability, T/C", "setting": "second compound 0.949 µM, first compound 0.01 µM", "value": 75.1, "unit": "%"},
      {"measurement": "viability, T/C", "setting": "[5]", "value": 73.8, "unit": "%"},
      {"measurement": "viability, T/C", "setting": "[6]", "value": 62.2, "unit": "%"},
      {"measurement": "viability, T/C", "setting": "[7]", "value": 56.2, "unit": "%"},
      {"measurement": "viability, T/C", "setting": "[8]", "value": 31.9, "unit": "%"},
      {"measurement": "viability, T/C", "setting": "second compound 3 µM, first compound 0.00316 µM", "value": 97.7, "unit": "%"},
      {"measurement": "viability, T/C", "setting": "second compound 3 µM, first compound 0.01 µM", "value": 71.4, "unit": "%"},
      {"measurement": "viability, T/C", "setting": "[9]", "value": 68.1, "unit": "%"},
      {"measurement": "viability, T/C", "setting": "[10]", "value": 61.5, "unit": "%"},
      {"measurement": "viability, T/C", "setting": "[11]", "value": 51, "unit": "%"},
      {"measurement": "viability, T/C", "setting": "[12]", "value": 50.1, "unit": "%"},
      {"measurement": "viability, T/C", "setting": "second compound 9.49 µM, first compound 0.00316 µM", "value": 83.5, "unit": "%"},
      {"measurement": "viability, T/C", "setting": "second compound 9.49 µM, first compound 0.01 µM", "value": 87.2, "unit": "%"},
      {"measurement": "viability, T/C", "setting": "[13]", "value": 72, "unit": "%"},
      {"measurement": "viability, T/C", "setting": "[14]", "value": 62.1, "unit": "%"},
      {"measurement": "viability, T/C", "setting": "[15]", "value": 60.5, "unit": "%"},
      {"measurement": "viability, T/C", "setting": "[16]", "value": 56.4, "unit": "%"},
      {"measurement": "viability, T/C", "setting": "second compound 30 µM, first compound 0.00316 µM", "value": 93.6, "unit": "%"},
      {"measurement": "viability, T/C", "setting": "second compound 30 µM, first compound 0.01 µM", "value": 77.6, "unit": "%"},
      {"measurement": "viability, T/C", "setting": "[17]", "value": 73.6, "unit": "%"},
      {"measurement": "viability, T/C", "setting": "[18]", "value": 59.1, "unit": "%"},
      {"measurement": "viability, T/C", "setting": "[19]", "value": 43, "unit": "%"},
      {"measurement": "viability, T/C", "setting": "[20]", "value": 47.8, "unit": "%"}
    ]},
    {"smiles": "Cc1nc(NC(=O)N2CCCC2C(N)=O)sc1-c1ccnc(C(C)(C)C(F)(F)F)c1", "note": "(stereo not given) + CC(C)NCC(C(=O)N1CCN(c2ncnc3c2C(C)CC3O)CC1)c1ccc(Cl)cc1", "values": [
      {"measurement": "pIC50", "setting": "second compound 0.3 µM", "value": "< 5.00"},
      {"measurement": "pIC50", "setting": "second compound 0.949 µM", "value": "< 5.00"},
      {"measurement": "pIC50", "setting": "second compound 3 µM", "value": "< 5.00"},
      {"measurement": "pIC50", "setting": "second compound 9.49 µM", "value": "< 5.00"},
      {"measurement": "pIC50", "setting": "second compound 30 µM", "value": "< 5.00"},
      {"measurement": "viability, T/C", "setting": "[1]", "value": 110, "unit": "%"},
      {"measurement": "viability, T/C", "setting": "[2]", "value": 88.2, "unit": "%"},
      {"measurement": "viability, T/C", "setting": "[3]", "value": 81, "unit": "%"},
      {"measurement": "viability, T/C", "setting": "[4]", "value": 81.7, "unit": "%"},
      {"measurement": "viability, T/C", "setting": "second compound 0.3 µM, first compound 3.16 µM", "value": 68.5, "unit": "%"},
      {"measurement": "viability, T/C", "setting": "second compound 0.3 µM, first compound 10 µM", "value": 52.8, "unit": "%"},
      {"measurement": "viability, T/C", "setting": "[5]", "value": 85.3, "unit": "%"},
      {"measurement": "viability, T/C", "setting": "[6]", "value": 94.8, "unit": "%"},
      {"measurement": "viability, T/C", "setting": "[7]", "value": 104, "unit": "%"},
      {"measurement": "viability, T/C", "setting": "[8]", "value": 79.9, "unit": "%"},
      {"measurement": "viability, T/C", "setting": "second compound 0.949 µM, first compound 3.16 µM", "value": 86.9, "unit": "%"},
      {"measurement": "viability, T/C", "setting": "second compound 0.949 µM, first compound 10 µM", "value": 66.2, "unit": "%"},
      {"measurement": "viability, T/C", "setting": "[9]", "value": 80, "unit": "%"},
      {"measurement": "viability, T/C", "setting": "[10]", "value": 77.5, "unit": "%"},
      {"measurement": "viability, T/C", "setting": "[11]", "value": 76.9, "unit": "%"},
      {"measurement": "viability, T/C", "setting": "[12]", "value": 75.1, "unit": "%"},
      {"measurement": "viability, T/C", "setting": "second compound 3 µM, first compound 3.16 µM", "value": 80.5, "unit": "%"},
      {"measurement": "viability, T/C", "setting": "second compound 3 µM, first compound 10 µM", "value": 65.7, "unit": "%"},
      {"measurement": "viability, T/C", "setting": "[13]", "value": 85.6, "unit": "%"},
      {"measurement": "viability, T/C", "setting": "[14]", "value": 74.2, "unit": "%"},
      {"measurement": "viability, T/C", "setting": "[15]", "value": 81.4, "unit": "%"},
      {"measurement": "viability, T/C", "setting": "[16]", "value": 74.4, "unit": "%"},
      {"measurement": "viability, T/C", "setting": "second compound 9.49 µM, first compound 3.16 µM", "value": 71.2, "unit": "%"},
      {"measurement": "viability, T/C", "setting": "second compound 9.49 µM, first compound 10 µM", "value": 62.7, "unit": "%"},
      {"measurement": "viability, T/C", "setting": "[17]", "value": 94.6, "unit": "%"},
      {"measurement": "viability, T/C", "setting": "[18]", "value": 82, "unit": "%"},
      {"measurement": "viability, T/C", "setting": "[19]", "value": 91.5, "unit": "%"},
      {"measurement": "viability, T/C", "setting": "[20]", "value": 80.2, "unit": "%"},
      {"measurement": "viability, T/C", "setting": "second compound 30 µM, first compound 3.16 µM", "value": 72.4, "unit": "%"},
      {"measurement": "viability, T/C", "setting": "second compound 30 µM, first compound 10 µM", "value": 72.2, "unit": "%"}
    ]}
  ]
}
